Experimental data taken from PMC8539097, “Structural Insight into a Yeast Maltase—The BaAG2 from Blastobotrys adeninivorans with Transglycosylating Activity” (Journal of Fungi, 2021).

Molecular target: T1, BaAG2 (Blastobotrys adeninivorans, UniProt Z9CO09ION3)
T1 construct: wild type, recombinant from plasmid pURI3-BaAG2Cter in E. coli BL21(DE3), Ni-IMAC purified (plus SEC for crystals); domains span residues 1-581; most likely monomer
T1 sequence (Z9CO09ION3 1-580): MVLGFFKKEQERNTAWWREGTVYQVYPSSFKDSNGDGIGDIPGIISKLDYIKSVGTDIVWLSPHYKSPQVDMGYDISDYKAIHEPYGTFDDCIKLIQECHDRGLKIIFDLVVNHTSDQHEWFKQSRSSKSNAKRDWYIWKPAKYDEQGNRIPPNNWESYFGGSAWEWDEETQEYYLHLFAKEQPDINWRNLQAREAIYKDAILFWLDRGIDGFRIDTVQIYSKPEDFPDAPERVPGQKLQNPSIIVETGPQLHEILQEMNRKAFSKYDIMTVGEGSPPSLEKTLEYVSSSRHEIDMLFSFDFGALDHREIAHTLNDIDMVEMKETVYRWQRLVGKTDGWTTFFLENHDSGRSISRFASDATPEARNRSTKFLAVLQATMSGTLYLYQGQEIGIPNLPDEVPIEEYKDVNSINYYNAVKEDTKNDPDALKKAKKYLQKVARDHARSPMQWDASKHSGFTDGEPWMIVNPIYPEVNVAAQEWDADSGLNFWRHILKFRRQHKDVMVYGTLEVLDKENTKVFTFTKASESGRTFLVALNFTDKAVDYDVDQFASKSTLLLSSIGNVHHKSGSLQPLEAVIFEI
Assay: X-ray crystallography, crystal soaking, […] Å
Type: binding
Conditions: pH 5.5, 100 mM glucose soak; active site, subsite -1

## OC[C@H]1OC(O)[C@H](O)[C@@H](O)[C@@H]1O (stereo partly drawn) [D-glucose]
  X-ray crystallography, crystal soaking, 2.13 Å: codes 7P01 (BaAG2-acarbose) and 7P07 (BaAG2-glucose)
